Measured values published in US20120027720A1, “PEPTIDE CONJUGATES” (priority 2008, published 2012).
Where no end group is shown, it is not given here. [ ]: non-standard residue; d: D form. Phe(4-NO2) = N[C@@H](Cc1ccc([N+](=O)[O-])cc1)C(=O)O; Tic = O=C(O)[C@@H]1Cc2ccccc2CN1; Cha = N[C@@H](CC1CCCCC1)C(=O)O; Cit = NC(=O)NCCC[C@H](N)C(=O)O; Tle = CC(C)(C)[C@H](N)C(=O)O; hSer = N[C@@H](CCO)C(=O)O; βAla = NCCC(=O)O

Experiments:
CaCo2 monolayers [1] = assay: Epithelial flux of Lucifer Yellow through cell monolayer; type: cell-based; parameters: key to Enhanced LY permeability: + indicates an enhancement of the permeability of the tight junctions were observed; − indicates no enhancement of permeability was observed; conditions: Lucifer Yellow flux, Caco-2 monolayer
Source text: (§1) Agonists of tight junctions can be identified by their ability to enhance the flux of compounds (e.g. ions, Lucifer Yellow) through a cell monolayer that comprises tight junctions; or by their ability to reduce TEER across a cell monolayer that comprises tight junctions. Treatment of CaCo2 monolayers with peptide FCIGRL (SEQ ID NO: 1) led to a 51-fold enhancement of Lucifer Yellow permeability through CaCo2 monolayers compared to vehicle alone. Treatment of CaCo2 monolayers with peptide FCIGRL led to a 16-fold decrease in TEER across CaCo2 monolayers compared to vehicle alone.
(§2) Determination of TEER and Lucifer Yellow Flux
(§3) Prepare Modified Hank's Balanced Salt Solution (MHBSS) by obtaining 1 L bottle of HBSS removing 10 ml of HBSS and replacing it with 10 ml HEPES buffer pH 7.0. Adjust pH to 7.4±0.1 using concentrated NaOH (10N).
(§4) Remove Caco-2 cells from incubator, grown on 12-well, […], polycarbonate Transwell® filters (Corning) and record passage#, date cells seeded and age in days.
(§5) Aspirate cell culture medium from both the apical (AP) and basolateral (BL) compartments, replacing with 0.5 ml and 1.5 ml of MHBSS, respectively. Incubate cells at 37° C. for 30 minutes.
(§6) Aspirate solution from the apical compartment of each filter (n=3 per condition) and replace with 0.5 ml of control and test solutions containing Lucifer Yellow and test compound if appropriate.
(§7) Place all plates into incubator set at 37° C. (±0.2), 50 RPM (±5) for a total of 180 minutes.
At t=60, 120 and 180 minutes remove 100 μl from each basolateral compartment and place it in a 96-well plate for Lucifer Yellow analysis, replace with 100 μl of MHBSS.
Make a Lucifer Yellow standard curve with the following dilutions (7500 μM, 3750 μM, 750 μM, 375 μM, 75 μM, 37.5 μM, 7.5 μM, 3.75 μM, 0.75 μM) and pipette […] of each into a 96-well plate except for the first three standards mentioned above which require a 1:10 dilutions prior to transferring to the 96-well plate.
Harvest the remaining start solutions and what is left in each apical compartment into 1.5 ml vials. Freeze at −20° C. for future analysis.
Analyze each 96-well plate in a Tecan Spectra Fluor Plus using Magellan at 485 and 535 nm.
(§8) Cells: Caco-2 cells passage 40-60 grown on Transwell® plates for 21-28 days
(§9) Culture Medium: DMEM supplemented with 10% fetal bovine serum, 1% NEAA, 1% Penn/Strep
(§10) Buffers: Hank's Balanced Salt Solution (HBSS) without calcium and magnesium
(§11) Flasks: 100×20 mm Tissue culture dish Falcon.
(§12) Plates: 12 well polycarbonate Transwell® filters; 0.3 uM pore size

CaCo2 monolayers [2] = assay: Trans Epithelial Electric Resistance (TEER) across cell monolayer; type: cell-based; parameters: key to Reduced TEER: + indicates an enhancement of the permeability of the tight junctions were observed; − indicates no enhancement of permeability was observed; conditions: Caco-2 monolayer
Source text: as §1, §2, §3, §4, §5
Using the MilliCell®-ERS instrument (Millipore), measure and record the transepithelial electrical resistance (TEER) across each filter and record.
as §6, §7
At t=30, 60, 120 and 180 minutes, measure and record the transepithelial electrical resistance (TEER) across each filter using the MilliCell-ERS instrument.
as §8, §9, §10, §11, §12

Substance: 1 (FCIGRL; not fully specified) [compound 1]
- Enhanced LY permeability (CaCo2 monolayers [1]): +
- Reduced TEER (CaCo2 monolayers [2]): +

Substance: 4 (FCAGRL; not fully specified; printed as Phe-Cys-Ala-Gly-Arg-Leu) [compound 4]
- Enhanced LY permeability (CaCo2 monolayers [1]): −
- Reduced TEER (CaCo2 monolayers [2]): −

Substance: 9 (IGRL; not fully specified; printed as Ile-Gly-Arg-Leu) [compound 9]
- Enhanced LY permeability (CaCo2 monolayers [1]): −
- Reduced TEER (CaCo2 monolayers [2]): −

Substance: 12 ([dF]CIGRL; also: peptide conjugate) [compound 12]
- Enhanced LY permeability (CaCo2 monolayers [1]): +
- Reduced TEER (CaCo2 monolayers [2]): +

Substance: 20 ([dL][dR]GI[dC][dF]; not fully specified; printed as D-Leu-D-Arg-Gly-Ile-D-Cys-D-Phe) [compound 20]
- Enhanced LY permeability (CaCo2 monolayers [1]): +
- Reduced TEER (CaCo2 monolayers [2]): +

Substance: 21 ([dL]RG[dI][dC][dF]; not fully specified) [compound 21]
- Enhanced LY permeability (CaCo2 monolayers [1]): −
- Reduced TEER (CaCo2 monolayers [2]): −

Substance: 26 (LRG[dI]CF; not fully specified; printed as Leu-Arg-Gly-D-Ile-Cys-Phe) [compound 26]
- Enhanced LY permeability (CaCo2 monolayers [1]): +
- Reduced TEER (CaCo2 monolayers [2]): +

Substance: 27 (LRGI[dC]F; not fully specified; printed as Leu-Arg-Gly-Ile-D-Cys-Phe) [compound 27]
- Enhanced LY permeability (CaCo2 monolayers [1]): −
- Reduced TEER (CaCo2 monolayers [2]): −

Substance: 28 (LRGIC[dF]; not fully specified; printed as Leu-Arg-Gly-Ile-Cys-D-Phe) [compound 28]
- Enhanced LY permeability (CaCo2 monolayers [1]): −
- Reduced TEER (CaCo2 monolayers [2]): −

Substance: 30 ([dF][dC][dI]G[dR]L; not fully specified) [compound 30]
- Enhanced LY permeability (CaCo2 monolayers [1]): +
- Reduced TEER (CaCo2 monolayers [2]): +

Substance: 31 ([dF][dC][dI]GR[dL]; not fully specified) [compound 31]
- Enhanced LY permeability (CaCo2 monolayers [1]): −
- Reduced TEER (CaCo2 monolayers [2]): −

Substance: 34 (F[dC][dI]G[dR][dL]; not fully specified) [compound 34]
- Enhanced LY permeability (CaCo2 monolayers [1]): −
- Reduced TEER (CaCo2 monolayers [2]): −

Substance: 35 (F[dC]IG[dR]L; not fully specified; printed as Phe-D-Cys-Ile-Gly-D-Arg-Leu) [compound 35]
- Enhanced LY permeability (CaCo2 monolayers [1]): +
- Reduced TEER (CaCo2 monolayers [2]): +

Substance: 36 ([dL]RGICF; not fully specified; printed as D-Leu-Arg-Gly-Ile-Cys-Phe) [compound 36]
- Enhanced LY permeability (CaCo2 monolayers [1]): −
- Reduced TEER (CaCo2 monolayers [2]): −

Substance: 37 ([dL][dR]GICF; not fully specified; printed as D-Leu-D-Arg-Gly-Ile-Cys-Phe) [compound 37]
- Enhanced LY permeability (CaCo2 monolayers [1]): −
- Reduced TEER (CaCo2 monolayers [2]): −

Substance: 38 ([dL][dR]GIC[dF]; not fully specified) [compound 38]
- Enhanced LY permeability (CaCo2 monolayers [1]): −
- Reduced TEER (CaCo2 monolayers [2]): −

Substance: 39 ([dL][dR]GI[dC]F; not fully specified) [compound 39]
- Enhanced LY permeability (CaCo2 monolayers [1]): −
- Reduced TEER (CaCo2 monolayers [2]): −

Substance: 51 (H-[dA]CIGRG-OH; not fully specified) [compound 51]
- Enhanced LY permeability (CaCo2 monolayers [1]): +
- Reduced TEER (CaCo2 monolayers [2]): +

Substance: 63 (H-FCIGRF-OH; not fully specified) [compound 63]
- Enhanced LY permeability (CaCo2 monolayers [1]): +
- Reduced TEER (CaCo2 monolayers [2]): +

Substance: 69 (H-FCIGRLC-OH; not fully specified; cysteine pairing not given here) [compound 69]
- Reduced TEER (CaCo2 monolayers [2]): −

Substance: 74 (YCIGRL; not fully specified; printed as Tyr-Cys-Ile-Gly-Arg-Leu) [compound 74]
- Enhanced LY permeability (CaCo2 monolayers [1]): +
- Reduced TEER (CaCo2 monolayers [2]): +

Substance: 75 (Ac-ACIGRL; not fully specified; printed as Ac-Ala-Cys-Ile-Gly-Arg-Leu) [compound 75]
- Enhanced LY permeability (CaCo2 monolayers [1]): +
- Reduced TEER (CaCo2 monolayers [2]): +

Substance: 76 (WCIGRL; not fully specified; printed as Trp-Cys-Ile-Gly-Arg-Leu) [compound 76]
- Enhanced LY permeability (CaCo2 monolayers [1]): +
- Reduced TEER (CaCo2 monolayers [2]): +

Substance: 77 (Ac-ACIGRS; not fully specified; printed as Ac-Ala-Cys-Ile-Gly-Arg-Ser) [compound 77]
- Reduced TEER (CaCo2 monolayers [2]): −

Substance: 78 (Ac-ACIGRA; not fully specified; printed as Ac-Ala-Cys-Ile-Gly-Arg-Ala) [compound 78]
- Enhanced LY permeability (CaCo2 monolayers [1]): +
- Reduced TEER (CaCo2 monolayers [2]): −

Substance: 80 (SLIGRL-NH2; not fully specified; printed as Ser-Leu-Ile-Gly-Arg-Leu-NH2) [compound 80]
- Enhanced LY permeability (CaCo2 monolayers [1]): +
- Reduced TEER (CaCo2 monolayers [2]): +

Substance: 83 (GFCIGRL; not fully specified; printed as Gly-Phe-Cys-Ile-Gly-Arg-Leu) [compound 83]
- Enhanced LY permeability (CaCo2 monolayers [1]): +
- Reduced TEER (CaCo2 monolayers [2]): +

Substance: 87 (Ac-FLIGRL-NH2; not fully specified) [compound 87]
- Enhanced LY permeability (CaCo2 monolayers [1]): +
- Reduced TEER (CaCo2 monolayers [2]): +

Substance: 96 (H-FCIGR[βAla]-OH; SMILES CC[C@H](C)[C@H](NC(=O)[C@H](CS)NC(=O)[C@@H](N)Cc1ccccc1)C(=O)NCC(=O)N[C@@H](CCCNC(=N)N)C(=O)NCCC(=O)O) [compound 96]
- Enhanced LY permeability (CaCo2 monolayers [1]): +
- Reduced TEER (CaCo2 monolayers [2]): +

Substance: 97 (H-FCIGR[Tle]-OH; SMILES CC[C@H](C)[C@H](NC(=O)[C@H](CS)NC(=O)[C@@H](N)Cc1ccccc1)C(=O)NCC(=O)N[C@@H](CCCNC(=N)N)C(=O)N[C@H](C(=O)O)C(C)(C)C) [compound 97]
- Enhanced LY permeability (CaCo2 monolayers [1]): +
- Reduced TEER (CaCo2 monolayers [2]): +

Substance: 101 (H-FCIGR[Cha]-OH; SMILES CC[C@H](C)[C@H](NC(=O)[C@H](CS)NC(=O)[C@@H](N)Cc1ccccc1)C(=O)NCC(=O)N[C@@H](CCCNC(=N)N)C(=O)N[C@@H](CC1CCCCC1)C(=O)O) [compound 101]
- Enhanced LY permeability (CaCo2 monolayers [1]): +
- Reduced TEER (CaCo2 monolayers [2]): +

Substance: 104 (FCIG[Cit]L) [compound 104]
- Reduced TEER (CaCo2 monolayers [2]): −

Substance: 105 ([Phe(4-NO2)]CIGRL) [compound 105]
- Reduced TEER (CaCo2 monolayers [2]): −

Substance: 109 ([Tic]CIGRL) [compound 109]
- Reduced TEER (CaCo2 monolayers [2]): −

Substance: 114 (FTIGRL; also: peptide conjugate) [compound 114]
- Enhanced LY permeability (CaCo2 monolayers [1]): +
- Reduced TEER (CaCo2 monolayers [2]): +

Substance: 115 (FSIGRL; also: peptide conjugate) [compound 115]
- Enhanced LY permeability (CaCo2 monolayers [1]): +
- Reduced TEER (CaCo2 monolayers [2]): +

Substance: 116 (FMIGRL; also: peptide conjugate) [compound 116]
- Enhanced LY permeability (CaCo2 monolayers [1]): −
- Reduced TEER (CaCo2 monolayers [2]): −

Substance: 117 (FLIGRL-NH2; also: peptide conjugate) [compound 117]
- Enhanced LY permeability (CaCo2 monolayers [1]): −
- Reduced TEER (CaCo2 monolayers [2]): −

Substance: 118 (FFLIGRL-NH2; also: peptide conjugate) [compound 118]
- Enhanced LY permeability (CaCo2 monolayers [1]): +
- Reduced TEER (CaCo2 monolayers [2]): +

Substance: 119 (FFIGRL; also: peptide conjugate) [compound 119]
- Enhanced LY permeability (CaCo2 monolayers [1]): −
- Reduced TEER (CaCo2 monolayers [2]): +

Substance: 120 (FPIGRL; also: peptide conjugate) [compound 120]
- Enhanced LY permeability (CaCo2 monolayers [1]): −
- Reduced TEER (CaCo2 monolayers [2]): −

Substance: 121 (FWIGRL; also: peptide conjugate) [compound 121]
- Enhanced LY permeability (CaCo2 monolayers [1]): +
- Reduced TEER (CaCo2 monolayers [2]): +

Substance: 123 (FPIGRL; also: peptide conjugate) [compound 123]
- Enhanced LY permeability (CaCo2 monolayers [1]): −
- Reduced TEER (CaCo2 monolayers [2]): −

Substance: 124 (FDIGRL; also: peptide conjugate) [compound 124]
- Enhanced LY permeability (CaCo2 monolayers [1]): −
- Reduced TEER (CaCo2 monolayers [2]): −

Substance: 125 (FLIGRL-NH2; also: peptide conjugate) [compound 125]
- Enhanced LY permeability (CaCo2 monolayers [1]): +
- Reduced TEER (CaCo2 monolayers [2]): +

Substance: 126 (FFIGRL-NH2; also: peptide conjugate) [compound 126]
- Enhanced LY permeability (CaCo2 monolayers [1]): +
- Reduced TEER (CaCo2 monolayers [2]): +

Substance: 128 (FGIGRL; also: peptide conjugate) [compound 128]
- Enhanced LY permeability (CaCo2 monolayers [1]): +
- Reduced TEER (CaCo2 monolayers [2]): −

Substance: 141 (H-F[hSer]IGRL-OH; SMILES CC[C@H](C)[C@H](NC(=O)[C@H](CCO)NC(=O)[C@@H](N)Cc1ccccc1)C(=O)NCC(=O)N[C@@H](CCCNC(=N)N)C(=O)N[C@@H](CC(C)C)C(=O)O) [compound 141]
- Enhanced LY permeability (CaCo2 monolayers [1]): +
